Results as given in US20260285850A1, “SUBSTITUTED OXAZOLIDINONES AND IMIDAZOLINONES AS HERBICIDES” (FMC CORPORATION, priority 2023, published 2026).

Assays:
Type in all cases: in vivo
[1] = tested on: barnyardgrass (Echinochloa crus-galli); assay: Test A preemergence soil spray, visual injury rating 0-100; conditions: 10 days
In short: (§1)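 Seeds sown in loam-sand blend got a preemergence directed soil spray, or emerged plants (2-10 cm, one- to two-leaf) got a postemergence spray, of compound in non-phytotoxic solvent with surfactant. After 10 days in greenhouse, injury rated visually versus untreated controls on a 0 (no effect) to 100 (complete control) scale.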

[2] = tested on: blackgrass (Alopecurus myosuroides); assay: as above; conditions: 10 days
In short: as §1

[3] = tested on: corn (Zea mays); assay: as above; conditions: 10 days
In short: as §1

[4] = tested on: green foxtail (Setaria viridis); assay: as above; conditions: 10 days
In short: as §1

[5] = tested on: kochia (Bassia scoparia); assay: as above; conditions: 10 days
In short: as §1

[6] = tested on: oat, wild (wild oat, Avena fatua); assay: as above; conditions: 10 days
In short: as §1

[7] = tested on: palmer (palmer amaranth, palmer pigweed, Amaranthus palmeri); assay: as above; conditions: 10 days
In short: as §1

[8] = tested on: ragweed (common ragweed, Ambrosia artemisiifolia); assay: as above; conditions: 10 days
In short: as §1

[9] = tested on: ryegrass, Italian (italian ryegrass, Lolium multiflorum); assay: as above; conditions: 10 days
In short: as §1

[10] = tested on: soybean (Glycine max); assay: as above; conditions: 10 days
In short: as §1

[11] = tested on: wheat (Triticum aestivum); assay: as above; conditions: 10 days
In short: as §1

[12] = tested on: barnyardgrass (Echinochloa crus-galli); assay: Test A postemergence application, visual injury rating 0-100
In short: as §1

[13] = tested on: blackgrass (Alopecurus myosuroides); assay: as above
In short: as §1

[14] = tested on: corn (Zea mays); assay: as above
In short: as §1

[15] = tested on: galium (catchweed bedstraw, Galium aparine); assay: as above
In short: as §1

[16] = tested on: green foxtail (Setaria viridis); assay: as above
In short: as §1

[17] = tested on: horseweed (Erigeron canadensis); assay: as above
In short: as §1

[18] = tested on: kochia (Bassia scoparia); assay: as above
In short: as §1

[19] = tested on: oat, wild (wild oat, Avena fatua); assay: as above
In short: as §1

[20] = tested on: palmer (palmer amaranth, palmer pigweed, Amaranthus palmeri); assay: as above
In short: as §1

[21] = tested on: ragweed (common ragweed, Ambrosia artemisiifolia); assay: as above
In short: as §1

[22] = tested on: ryegrass, Italian (italian ryegrass, Lolium multiflorum); assay: as above
In short: as §1

[23] = tested on: soybean (Glycine max); assay: as above
In short: as §1

[24] = tested on: wheat (Triticum aestivum); assay: as above
In short: as §1

[25] = tested on: barnyardgrass (Echinochloa crusgalli); assay: Test B flooded paddy test, visual plant response rating 0-100; conditions: 250 g ai/ha, Flood, applied to paddy water, evaluated after 13 days
In short: (§2)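 Paddy-water application: test compounds went directly into water flooded 3 cm above the soil surface, with plants at 2 leaves. After a 13-day greenhouse period, responses were judged by eye relative to controls; a dash marks an untested entry.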

[26] = tested on: ducksalad (Heteranthera limosa); assay: as above; conditions: 250 g ai/ha, Flood, applied to paddy water, evaluated after 13 days
In short: as §2

[27] = tested on: rice (Oryza sativa); assay: as above; conditions: 250 g ai/ha, Flood, applied to paddy water, evaluated after 13 days
In short: as §2

[28] = tested on: sedge, umbrella (small-flower umbrella sedge, Cyperus difformis); assay: as above; conditions: 250 g ai/ha, Flood, applied to paddy water, evaluated after 13 days
In short: as §2

[29] = 62 g ai/ha, 0 = no effect, 100 = complete control
[30] = 62 g ai/ha, postemergence, 10 days, 0 = no effect, 100 = complete control
[31] = Postemergence, 16 g ai/ha, greenhouse 10 days, 0 no effect, 100 complete control

CC1(C(=O)NC2CC=C(C(=O)NS(=O)(=O)C(C)(C)C)C2)CN(c2cc(F)cc(F)c2)C(=O)O1 (racemic) [Compound 91]
Barnyardgrass plant response rating ([1]; 16 g ai/ha, 0 to 100 scale): 0
Barnyardgrass plant response rating (0-100) [1, 29]: 10
Blackgrass plant response rating ([2]; 16 g ai/ha, 0 to 100 scale): 0
Blackgrass plant response rating (0-100) [2, 29]: 0
Corn plant response rating ([3]; 16 g ai/ha, 0 to 100 scale): 0
Corn plant response rating (0-100) [3, 29]: 0
Foxtail, Green plant response rating ([4]; 16 g ai/ha, 0 to 100 scale): 0
Foxtail, Green plant response rating (0-100) [4, 29]: 0
Kochia plant response rating ([5]; 16 g ai/ha, 0 to 100 scale): 0
Kochia plant response rating (0-100) [5, 29]: 0
Oat, Wild plant response rating ([6]; 16 g ai/ha, 0 to 100 scale): 0
Oat, Wild plant response rating (0-100) [6, 29]: 0
Pigweed, Palmer plant response rating ([7]; 16 g ai/ha, 0 to 100 scale): 0
Pigweed, Palmer plant response rating (0-100) [7, 29]: 0
Ragweed plant response rating ([8]; 16 g ai/ha, 0 to 100 scale): 0
Ragweed plant response rating (0-100) [8, 29]: 0
Ryegrass, Italian plant response rating ([9]; 16 g ai/ha, 0 to 100 scale): 0
Ryegrass, Italian plant response rating (0-100) [9, 29]: 0
Soybean plant response rating ([10]; 16 g ai/ha, 0 to 100 scale): 0
Soybean plant response rating (0-100) [10, 29]: 0
Wheat plant response rating ([11]; 16 g ai/ha, 0 to 100 scale): 0
Wheat plant response rating (0-100) [11, 29]: 0
Barnyardgrass plant response rating (0-100) [12, 30]: 40
Barnyardgrass plant response rating (0 to 100 scale) [12, 31]: 0
Blackgrass plant response rating (0-100) [13, 30]: 10
Blackgrass plant response rating (0 to 100 scale) [13, 31]: 0
Corn plant response rating (0-100) [14, 30]: 30
Corn plant response rating (0 to 100 scale) [14, 31]: 0
Galium plant response rating (0-100) [15, 30]: 10
Galium plant response rating (0 to 100 scale) [15, 31]: 0
Foxtail, Green plant response rating (0-100) [16, 30]: 20
Foxtail, Green plant response rating (0 to 100 scale) [16, 31]: 0
Horseweed plant response rating (0-100) [17, 30]: 0
Horseweed plant response rating (0 to 100 scale) [17, 31]: 10
Kochia plant response rating (0-100) [18, 30]: 40
Kochia plant response rating (0 to 100 scale) [18, 31]: 0
Oat, Wild plant response rating (0-100) [19, 30]: 20
Oat, Wild plant response rating (0 to 100 scale) [19, 31]: 0
Pigweed, Palmer plant response rating (0-100) [20, 30]: 50
Pigweed, Palmer plant response rating (0 to 100 scale) [20, 31]: 0
Ragweed plant response rating (0-100) [21, 30]: 20
Ragweed plant response rating (0 to 100 scale) [21, 31]: 0
Ryegrass, Italian plant response rating (0-100) [22, 30]: 40
Ryegrass, Italian plant response rating (0 to 100 scale) [22, 31]: 0
Soybean plant response rating (0-100) [23, 30]: 30
Soybean plant response rating (0 to 100 scale) [23, 31]: 0
Wheat plant response rating (0-100) [24, 30]: 50
Wheat plant response rating (0 to 100 scale) [24, 31]: 0
Plant response rating, Barnyardgrass (0 to 100 scale, 0 is no effect and 100 is complete control) [25]: 0
Plant response rating, Ducksalad (0 to 100 scale, 0 is no effect and 100 is complete control) [26]: 0
Plant response rating, Rice (0 to 100 scale, 0 is no effect and 100 is complete control) [27]: 0
Plant response rating, Sedge, Umbrella (0 to 100 scale, 0 is no effect and 100 is complete control) [28]: 0
